In article PMC10599482 (Chemical Science, 2023):

Assay: CD spectroscopy, percent helicity
Format: physicochemical
Details: 50.0% TFE aqueous solution, 0.1 mg/mL peptide, 20 °C, calculated from [θ]222

Q: With CC[C@H](C)[C@H](NC(=O)[C@H](C)NC(=O)[C@H](CCC(=O)O)NC(=O)[C@H](CCC(=O)O)NC(=O)[C@H](CC(C)C)NC(=O)[C@H](CCCCN)NC(=O)[C@H](CCCCN)NC(=O)[C@H](CCSC)NC(=O)[C@H](CCC(=O)O)NC(=O)[C@H](Cc1ccc(O)cc1)NC(=O)[C@H](CCC(=O)O)NC(=O)[C@H](CC(C)C)NC(=O)[C@H](CC(=O)O)NC(=O)[C@H](CC(C)C)NC(=O)[C@H](Cc1ccccc1)NC(=O)[C@@H](NC(=O)[C@@H](NC(=O)[C@H](CC(N)=O)NC(=O)[C@@H](NC(=O)[C@H](CCC(N)=O)NC(=O)[C@H](CC(=O)O)NC(=O)[C@H](CC(C)C)NC(=O)[C@H](CO)NC(C)=O)[C@@H](C)CC)C(C)C)[C@@H](C)O)C(=O)N[C@@H](CCCCN)C(=O)N[C@@H](CCCCN)C(=O)N[C@@H](CC(C)C)C(=O)N[C@@H](CCC(=O)O)C(=O)N[C@@H](CCC(=O)O)C(=O)N[C@@H](CO)C(=O)N[C@@H](Cc1ccc(O)cc1)C(=O)N[C@H](C(=O)N[C@@H](CC(=O)O)C(=O)N[C@@H](CC(C)C)C(=O)N[C@@H](CCCCN)C(=O)N[C@@H](CCC(=O)O)C(=O)N[C@@H](CC(C)C)C(N)=O)[C@@H](C)CC [EK1] as the compound, how does the “α-Helicity (%)” value read?
A: The value was 13.6%.
